Laboratory results reported in patent publication US9738902B2, “Modified PYR/PYL receptors activated by ligands” (priority 2013, dated 2017).

Columns and labels:
PYR1-OX = assay: qRT-PCR of ABA-regulated genes RD29B and RAB18; assay type: in vivo, Arabidopsis; details: 50 μM ABA, 8 hours
Procedure: One of ABA's major effects is to regulate gene expression. We therefore examined the effects of ABA and mandipropamid on gene expression in wild type, PYR-OX, MDP1 and MPD2 transgenic plants. Seed of the wild type or transgenic lines were surface sterilized, stratified for 4 days at 4° C. and then grown for 10 days at room temperature under continuous illumination in a liquid culture consisting of 0.5×MS salts and 0.5% sucrose and grown with continuous shaking to provide aeration. After 10 days, the culture solutions were adjusted to contain 50 μM ABA, 2 μM mandipropamid, or a mock treatment. After 8 hours exposure to the test compounds RNA was isolated using RNAEasy™ Plant RNA isolation kit (Qiagen, USA) and treated with DNAse. The purified RNA was utilized in qRT-PCR reactions using primers for the ABA-regulated genes RD29B or RAB18. Biological triplicate and triple technical replicate measurements were conducted. To perform qRT-PCR analyses, cDNA was generated from 5 μg of total RNA using superscript reverse transcriptase III (Invitrogen, USA), in reaction mixture containing a oligo-dT20 (SEQ ID NO:110) and a ribosomal RNA primer. Real-time quantitative PCR analysis was performed by ΔCt method of relative quantification. PCR mixtures contained cDNA, Maxima® SYBR green/Fluorescein qPCR master mix (Fermentas, USA) and 330 nM of each gene-specific primer. RT-PCRs were conducted using a BioRad CFX96 Real-Time PCR System and the data were processed using the BioRad CFX Manager software (BioRad, USA). PCRs were performed under the following cycling conditions: 3 min at 95° C., followed by 40 cycles of 10 sec at 95° C., 10 sec at 55° C. and 30 sec at 72° C. in 96-well optical reaction plates (BioRad, USA). The specificity of amplicons was verified by melting curve (disassociation) analysis (60-95° C.) after 40 cycles. Input cDNA was normalized using an internal control gene, PEX4 (AT5G25760).

[1] = molecular target: T1, GST-HAB1 with 6×-His-PYR1^MANDI (Arabidopsis thaliana, UniProt O49686, F108A/F159L/K59R/S122G/V81I/Y58H); assay: PP2C enzyme inhibition assay (4-methylumbelliferyl-phosphate); assay type: biochemical; details: PYR1^MANDI with GST-HAB1, GST-ABI1, GST-ABI2
T1 construct: made in house; host or cells: E. coli BL21[DE3]pLysS (receptor)
T1 sequence (Q9CAJ0 23-511): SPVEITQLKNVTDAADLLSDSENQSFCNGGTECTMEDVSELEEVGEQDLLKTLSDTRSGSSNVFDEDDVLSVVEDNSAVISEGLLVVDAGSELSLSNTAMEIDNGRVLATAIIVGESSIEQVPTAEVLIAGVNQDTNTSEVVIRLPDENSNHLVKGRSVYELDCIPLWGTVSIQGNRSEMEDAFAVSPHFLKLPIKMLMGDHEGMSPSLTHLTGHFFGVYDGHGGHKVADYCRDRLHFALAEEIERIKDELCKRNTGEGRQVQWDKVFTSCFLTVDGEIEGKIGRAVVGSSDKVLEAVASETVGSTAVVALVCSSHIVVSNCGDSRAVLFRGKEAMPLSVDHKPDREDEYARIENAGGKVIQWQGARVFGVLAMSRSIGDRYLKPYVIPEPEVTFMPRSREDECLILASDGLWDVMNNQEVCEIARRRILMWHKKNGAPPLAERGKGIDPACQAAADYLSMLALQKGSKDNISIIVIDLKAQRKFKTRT
T1 sequence (O49686 whole entry Y58H/K59R/V81I/F108A/S122G/F159L): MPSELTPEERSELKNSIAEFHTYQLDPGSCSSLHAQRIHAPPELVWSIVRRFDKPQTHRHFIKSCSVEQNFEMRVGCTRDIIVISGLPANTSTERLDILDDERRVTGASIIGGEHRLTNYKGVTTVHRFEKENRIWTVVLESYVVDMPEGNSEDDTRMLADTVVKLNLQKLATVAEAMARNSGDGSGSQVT
Procedure: We next characterized the effects of recombinant PYR1^MANDI on PP2C activity using the fluorogenic substrate 4-methylumbelliferyl-phosphate. Recombinant receptor and PP2C proteins were prepared as described above and used to examine PP2C inactivation in response to mandipropamid or ABA. Enzyme inhibition assays were conducted using the following assay conditions: 100 nM 6×-His-PYR1^MANDI, 50 nM GST-PP2C, 100 mM Tris-OAc (pH 7.9), 100 mM NaCl, 1 mM MnCl2, 1% β-mercaptoethanol. […] The three ABA-regulated clade A PP2Cs, GST-HAB1, GST-ABI1 and GST-ABI2 were each tested under the same enzyme conditions in separate reactions. The assays were conducted at a variety of mandipropamid or ABA concentrations so that IC50 values could be determined. […] Thus, the PYR1^MANDI receptor is highly sensitive to activation by mandipropamid and interacts with multiple clade A PP2Cs in response to mandipropamid. This high level of sensitivity is consistent with the yeast two hybrid results described above in which a detectable interaction between PYR1^MANDI and HAB1 could be observed at concentrations as low as 2 nM (see Table 1). We note that the yeast two hybrid reporter systems requires only a small percentage of PYR1^MANDI receptors to bind HAB1 for an interaction signal and is therefore a potentially more sensitive indicator than in vitro assays. […] Thus these in vitro assays confirm that PYR1^MANDI is selectively activated by mandipropamid.

PYR1 K59R A89I S92I = molecular target: T2, PYR1 K59R A89I S92I (Arabidopsis thaliana, UniProt O49686, A89I/K59R/S92I); assay: Y2H Combinatorial Mutagenesis Screen I (HAB1, X-gal); assay type: cell-based
T2 construct: expressed in transfected cells; host or cells: S. cerevisiae Y190 two-hybrid reporter strain
T2 sequence (O49686 whole entry K59R/A89I/S92I): as the sequence (O49686 whole entry Y58H/K59R/V81I/F108A/S122G/F159L) above, with H58Y, I81V, A89I, S92I, A108F, G122S, L159F counted along it
T2 sequence (Q9CAJ0 23-511, further chain): as the sequence (Q9CAJ0 23-511) above
Text: (§1) This screening approach yielded mutants at ligand contacting residues that alter sensitivity to specific ligands. We reasoned that receptor sensitivity could be improved by systematically constructing combinations of the best mutant variants identified in the first round of screening. To test this, we constructed mutant combinations using the strongest mutations identified for mandipropamid, benzothiadiazole, benoxacor or fludioxonil sensitivity. The mutations selected for combinatorial mutagenesis are listed in bold type in Table 1; The mutant combinations were constructed using the QuickChange Lightning Multi Site-Directed PCR Mutagenesis kit (Agilent, USA) using pBD-PYR1^K59R template DNA and mutagenic primers, essentially as previously described (Mosquna et al., 2011). The mutant combinations were sequence validated, introduced into the pACT-HAB1 Y190 reporter strain and then tested for responsiveness to a range of compound concentrations (100, 50, 25, 10, 1, 0.2, 0.1 or 0 μM each test compound). These efforts yielded double mutant receptor variants with improved sensitivity for the 4 compound/receptor pairs examined (see entries labeled “Combinatorial Mutagenesis Screen I” in Table 1).

PYR1 K59R A89I S92W = molecular target: T3, PYR1 K59R A89I S92W (Arabidopsis thaliana, UniProt O49686, A89I/K59R/S92W); assay: as above; assay type: cell-based
T3 construct: expressed in transfected cells; host or cells: S. cerevisiae Y190 two-hybrid reporter strain
T3 sequence (Q9CAJ0 23-511): as above
T3 sequence (O49686 whole entry K59R/A89I/S92W): as the sequence (O49686 whole entry Y58H/K59R/V81I/F108A/S122G/F159L) above, with H58Y, I81V, A89I, S92W, A108F, G122S, L159F counted along it
Text: as §1

PYR1 K59R S92W = molecular target: T4, PYR1 K59R S92W (Arabidopsis thaliana, UniProt O49686, K59R/S92W); assay: Y2H Pocket Library Screen (HAB1, X-gal); assay type: cell-based
T4 construct: expressed in transfected cells; host or cells: S. cerevisiae Y190 yeast two-hybrid reporter strain
T4 sequence (Q9CAJ0 23-511): as the sequence (Q9CAJ0 23-511) above
T4 sequence (O49686 whole entry K59R/S92W): as the sequence (O49686 whole entry Y58H/K59R/V81I/F108A/S122G/F159L) above, with H58Y, I81V, S92W, A108F, G122S, L159F counted along it
Procedure: (§2) The set of 475 mutant plasmids were individually transformed into the Y190 yeast two hybrid reporter strain co-transformed with pACT-HAB1, as previously described (Park et al., 2009). The yeast strains generated were arrayed into 96-well plates yielding what we refer to as the “pocket library”. The pocket library strains were spotted onto agar plates containing selective synthetic dextrose (minus Leu & Trp) medium that was supplemented with a single test compound at 100 μM. The pocket library strains were separately tested for responsiveness to the following compounds: dichlobenil, benzothiadiazole, mandipropamid, fludioxonil, and benoxacor. After incubating test plates at 30° C. for two days, colonies were chloroform lysed and stained to reveal β-galactosidase expression levels, using previously described methods (Park et al., 2009). Mutants displaying responsiveness to the test compound, if present, were identified by virtue of X-gal staining and then subjected to subsequent optimization efforts. Using this approach we identified mutations that conferred detectable sensitivity to the compounds tested (see entries labeled “Pocket Library Screens” in Table 1).

PYR1 K59R A89I = molecular target: T5, PYR1 K59R A89I (Arabidopsis thaliana, UniProt O49686, A89I/K59R); assay: Y2H Pocket Library Screen (HAB1, X-gal); assay type: cell-based
T5 construct: expressed in transfected cells; host or cells: S. cerevisiae Y190 yeast two-hybrid reporter strain
T5 sequence (O49686 whole entry K59R/A89I): as the sequence (O49686 whole entry Y58H/K59R/V81I/F108A/S122G/F159L) above, with H58Y, I81V, A89I, A108F, G122S, L159F counted along it
T5 sequence (Q9CAJ0 23-511, further chain): as the sequence (Q9CAJ0 23-511) above
Procedure: as §2

PYR1 K59R L87F = molecular target: T6, PYR1 K59R L87F (Arabidopsis thaliana, UniProt O49686, K59R/L87F); assay: Y2H Pocket Library Screen (HAB1, X-gal); assay type: cell-based
T6 construct: expressed in transfected cells; host or cells: S. cerevisiae Y190 yeast two-hybrid reporter strain
T6 sequence (O49686 whole entry K59R/L87F): as the sequence (O49686 whole entry Y58H/K59R/V81I/F108A/S122G/F159L) above, with H58Y, I81V, L87F, A108F, G122S, L159F counted along it
T6 sequence (Q9CAJ0 23-511, further chain): as the sequence (Q9CAJ0 23-511) above
Procedure: as §2

PYR1 K59R S92I = molecular target: T7, PYR1 K59R S92I (Arabidopsis thaliana, UniProt O49686, K59R/S92I); assay: Y2H Pocket Library Screen (HAB1, X-gal); assay type: cell-based
T7 construct: expressed in transfected cells; host or cells: S. cerevisiae Y190 yeast two-hybrid reporter strain
T7 sequence (O49686 whole entry K59R/S92I): as the sequence (O49686 whole entry Y58H/K59R/V81I/F108A/S122G/F159L) above, with H58Y, I81V, S92I, A108F, G122S, L159F counted along it
T7 sequence (Q9CAJ0 23-511, further chain): as the sequence (Q9CAJ0 23-511) above
Procedure: as §2

PYR1 K59R M158C = molecular target: T8, PYR1 K59R M158C (Arabidopsis thaliana, UniProt O49686, K59R/M158C); assay: Y2H Pocket Library Screen (HAB1, X-gal); assay type: cell-based
T8 construct: expressed in transfected cells; host or cells: S. cerevisiae Y190 two-hybrid reporter strain
T8 sequence (O49686 whole entry K59R/M158C): as the sequence (O49686 whole entry Y58H/K59R/V81I/F108A/S122G/F159L) above, with H58Y, I81V, A108F, G122S, M158C, L159F counted along it
T8 sequence (Q9CAJ0 23-511, further chain): as the sequence (Q9CAJ0 23-511) above
Procedure: as §2

PYR1 K59R A89W = molecular target: T9, PYR1 K59R A89W (Arabidopsis thaliana, UniProt O49686, A89W/K59R); assay: Y2H Pocket Library Screen (HAB1, X-gal); assay type: cell-based
T9 construct: expressed in transfected cells; host or cells: S. cerevisiae Y190 yeast two-hybrid reporter strain
T9 sequence (O49686 whole entry K59R/A89W): as the sequence (O49686 whole entry Y58H/K59R/V81I/F108A/S122G/F159L) above, with H58Y, I81V, A89W, A108F, G122S, L159F counted along it
T9 sequence (Q9CAJ0 23-511, further chain): as the sequence (Q9CAJ0 23-511) above
Procedure: as §2

PYR1 K59R F159V = molecular target: T10, PYR1 K59R F159V (Arabidopsis thaliana, UniProt O49686, F159V/K59R); assay: Y2H Pocket Library Screen (HAB1, X-gal); assay type: cell-based
T10 construct: expressed in transfected cells; host or cells: S. cerevisiae Y190
T10 sequence (O49686 whole entry K59R/F159V): as the sequence (O49686 whole entry Y58H/K59R/V81I/F108A/S122G/F159L) above, with H58Y, I81V, A108F, G122S, L159V counted along it
T10 sequence (Q9CAJ0 23-511, further chain): as the sequence (Q9CAJ0 23-511) above
Procedure: as §2

PYR1 K59R T162W = molecular target: T11, PYR1 K59R T162W (Arabidopsis thaliana, UniProt O49686, K59R/T162W); assay: Y2H Pocket Library Screen (HAB1, X-gal); assay type: cell-based
T11 construct: expressed in transfected cells; host or cells: S. cerevisiae Y190
T11 sequence (O49686 whole entry K59R/T162W): as the sequence (O49686 whole entry Y58H/K59R/V81I/F108A/S122G/F159L) above, with H58Y, I81V, A108F, G122S, L159F, T162W counted along it
T11 sequence (Q9CAJ0 23-511, further chain): as the sequence (Q9CAJ0 23-511) above
Procedure: as §2

PYR1 K59R M158T = molecular target: T12, PYR1 K59R M158T (Arabidopsis thaliana, UniProt O49686, K59R/M158T); assay: Y2H Pocket Library Screen (HAB1, X-gal); assay type: cell-based
T12 construct: expressed in transfected cells; host or cells: S. cerevisiae Y190 two-hybrid reporter strain
T12 sequence (Q9CAJ0 23-511): as above
T12 sequence (O49686 whole entry K59R/M158T): as the sequence (O49686 whole entry Y58H/K59R/V81I/F108A/S122G/F159L) above, with H58Y, I81V, A108F, G122S, M158T, L159F counted along it
Procedure: as §2

PYR1 K59R M158V = molecular target: T13, PYR1 K59R M158V (Arabidopsis thaliana, UniProt O49686, K59R/M158V); assay: Y2H Pocket Library Screen (HAB1, X-gal); assay type: cell-based
T13 construct: expressed in transfected cells; host or cells: S. cerevisiae Y190 two-hybrid reporter strain
T13 sequence (O49686 whole entry K59R/M158V): as the sequence (O49686 whole entry Y58H/K59R/V81I/F108A/S122G/F159L) above, with H58Y, I81V, A108F, G122S, M158V, L159F counted along it
T13 sequence (Q9CAJ0 23-511, further chain): as the sequence (Q9CAJ0 23-511) above
Procedure: as §2

Row | SMILES | levels of RAB18 and RD29 induced by ABA, compared with wild type (PYR1-OX) | activation of the receptors by ABA [1] | Threshold (PYR1 K59R A89I S92I) | Threshold (PYR1 K59R A89I S92W) | Threshold (PYR1 K59R S92W) | Threshold (PYR1 K59R A89I) | Threshold (PYR1 K59R L87F) | Threshold (PYR1 K59R S92I) | Threshold (PYR1 K59R M158C) | Threshold (PYR1 K59R A89W) | Threshold (PYR1 K59R F159V) | Threshold (PYR1 K59R T162W) | Threshold (PYR1 K59R M158T) | Threshold (PYR1 K59R M158V)
1 | CC1=CC(=O)CC(C)(C)[C@@]1(O)/C=C/C(C)=C\C(=O)O [ABA, abscisic acid] | higher | not appreciably activated | – | – | – | – | – | – | – | – | – | – | – | –
2 | CC1COc2ccccc2N1C(=O)C(Cl)Cl (centres unmarked) [Benoxacor, benoxacor] | – | – | 50 µM | 50 µM | 50 µM | 100 µM | 100 µM | 50 µM | 100 µM | 100 µM | 100 µM | 50 µM | 100 µM | 100 µM
